Experimental data as given in the NIST ThermoML archive (doi:10.1021/acs.jced.5b00209).

Conditions: 101.33 kPa, Liquid; for viscosity: Capillary tube (Ostwald / Ubbelohde) method; for mass density: Pycnometric method

C[S+](C)[O-] [dimethyl sulfoxide]
Conditions | mass density [kg/m3] | viscosity [mPa·s]
298.15 K | 1096.8 | 2.01
303.15 K | 1091.4 | 1.82
308.15 K | 1086.1 | 1.65
313.15 K | 1081.2 | 1.54
318.15 K | 1075.3 | 1.37
